Measured values reported in patent publication US20240300980A1, “HETEROCYCLIC COMPOUNDS AS KRAS INHIBITOR, AND PREPARATION THEREFOR AND USE THEREOF IN TREATMENT” (SHANGHAI KECHOW PHARMA, INC., priority 2021, published 2024).
Read-outs that look alike come from different tables or passages of the source.

Tested on: AGS cells (KRAS^G12D)
Test: Detection of cell proliferation in vitro by MTT/MTS method (cell activity experiment)
Assay type: cell-based
Settings: AGS cells, MTT/MTS, 3 days of drug treatment, read-out: AGS IC50
Summary of the method: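 After 3-day compound exposure (final DMSO 0.5%), viability of AGS (KRAS G12D) cells, plated 1000/well one day before dosing, was measured at 490 nm following 4 h MTT or MTS incubation. IC50 was fitted from dose–effect curves relative to DMSO-treated wells.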

| Structure (SMILES) | IC50 [nM] | IC50 (Homo sapiens, AGS, 72 h) [nM] |
| --- | --- | --- |
| C#Cc1c(F)ccc2cc(O)cc(-c3ccc4c(N5CCC(N)C5)nc(OC[C@@]56CCCN5C[C@H](F)C6)nc4c3F)c12 (stereo partly drawn) [Example 116, 4-(4-(3-aminopyrrolidin-1-yl)-8-fluoro-2-(((2R, 7aS)-2-fluorotetrahydro-1H-pyrrolizin-7a(5H)-yl)methoxy)quinazolin-7-yl)-5-ethynyl-6-fluoronaphthalen-2-ol] | > 2500 | – |
| C#Cc1c(F)ccc2cc(O)cc(-c3ncc4c(N5CC6CCC5CN6)nc(OC[C@@]56CCCN5C[C@H](F)C6)nc4c3F)c12 (stereo partly drawn) [Example 46, 4-(4-(2,5-diazabicyclo [2.2.2]octan-2-yl)-8-fluoro-2-(((2R,7aS)-2-fluorotetrahydro-1H-pyrrolizin-7a(5H)-yl)methoxy)pyrido[4,3-d]pyrimidin-7-yl)-5-ethynyl-6-fluoronaphthalen-2-ol] | – | 13 |
| Oc1cc(N2CCc3c(nc(OC[C@@]45CCCN4C[C@H](F)C5)nc3N3C[C@H]4CC[C@@H](C3)N4)C2)c2c(F)c(F)ccc2c1 [Example 204, 4-(4-((1R,5S)-3,8-diazabicyclo[3.2.1]octan-3-yl)-2-(((2R,7aS)-2-fluorotetrahydro-1H-pyrrolizin-7a(5H)-yl)methoxy)-5,8-dihydropyrido[3,4-d]pyrimidin-7(6H)-yl)-5,6-difluoronaphthalen-2-ol] | – | 11 |
| C#Cc1c(F)ccc2cc(O)cc(-c3ncc4c(N5C[C@H]6CC[C@@H](C5)N6)nc(OCC56CC5CN(C)C6)nc4c3F)c12 (stereo partly drawn) [Example 76, 4-(4-((1R,5S)-3,8-diazabicyclo[3.2.1]octan-3-yl)-8-fluoro-2-((3-methyl-3-azabicyclo [3.1.0]hexan-1-yl)methoxy)pyrido[4,3-d]pyrimidin-7-yl)-5-ethynyl-6-fluoronaphthalen-2-ol] | – | > 2500 |
| CC1(C)CCc2cc(O)cc(-c3ncc4c(N5C[C@H]6CC[C@@H](C5)N6)nc(OC[C@@]56CCCN5C[C@H](F)C6)nc4c3F)c21 [Example 299, 7-(4-((1R,5S)-3,8-diazabicyclo[3.2.1]octan-3-yl)-8-fluoro-2-(((2R,7aS)-2-fluorotetrahydro-1H-pyrrolizin-7a(5H)-yl)methoxy)pyrido[4,3-d]pyrimidin-7-yl)-1,1-dimethyl-2,3-dihydro-1H-inden-5-ol] | – | 945 |
| CCc1cccc2cc(O)cc(-c3ncc4c(N5C[C@H]6CC[C@@H](C5)N6)nc(OCC5(CN6CCCC6)CC5)nc4c3F)c12 [Example 4, 4-(4-((1R,5S)-3,8-diazabicyclo[3.2.1]octan-3-yl)-8-fluoro-2-((1-(pyrrolidin-1-ylmethyl)cyclopropyl)methoxy)pyrido[4,3-d]pyrimidin-7-yl)-5-ethylnaphthalen-2-ol] | – | 11 |
| C#Cc1c(F)ccc2cc(O)cc(-c3ncc4c(N5C[C@H]6CC[C@@H](C5)N6)nc(OC[C@@]56CCCN5C[C@H](F)C6)nc4c3O)c12 [Example 332, 4-((1R,5S)-3,8-diazabicyclo[3.2.1]octan-3-yl)-7-(8-ethynyl-7-fluoro-3-hydroxynaphthalen-1-yl)-2-(((2R,7aS)-2-fluorotetrahydro-1H-pyrrolizin-7a(5H)-yl)methoxy)pyrido[4,3-d]pyrimidin-8-ol] | – | > 2500 |
| C#Cc1cc2c(N3C[C@H]4CC[C@@H](C3)N4)nc(OC[C@@]34CCCN3C[C@H](F)C4)nc2c(F)c1-c1cc(O)cc2ccccc12 [Example 369, 4-(4-((1R,5S)-3,8-diazabicyclo[3.2.1]octan-3-yl)-6-ethynyl-8-fluoro-2-(((2R,7aS)-2-fluorotetrahydro-1H-pyrrolizin-7a(5H)-yl)methoxy)quinazolin-7-yl)naphthalen-2-ol] | – | 180 |
| C[C@@H]1CCCc2cc(O)cc(-c3ncc4c(N5CC6CCC(C5)N6)nc(OC[C@@]56CCCN5C[C@H](F)C6)nc4c3F)c21 (single isomer, unassigned) [Example 225, (R)-4-(4-((1R,5S)-3,8-diazabicyclo[3.2.1]octan-3-yl)-8-fluoro-2-(((2R,7aS)-2-fluorotetrahydro-1H-pyrrolizin-7a(5H)-yl)methoxy)pyrido[4,3-d]pyrimidin-7-yl)-5-methyl-5,6,7,8-tetrahydronaphthalen-2-ol or (S)-4-(4-((1R,5S)-3,8-diazabicyclo[3.2.1]octan-3-yl)-8-fluoro-2-(((2R,7aS)-2-fluorotetrahydro-1H-pyrrolizin-7a(5H)-yl)methoxy)pyrido[4,3-d]pyrimidin-7-yl)-5-methyl-5,6,7,8-tetrahydronaphthalen-2-ol] | – | 668 |
| C#Cc1c(F)ccc2cc(O)cc(-c3ncc4c(N5CCC6(CC5)CO[C@@H](C)[C@H]6N)nc(OC[C@@]56CCCN5C[C@H](F)C6)nc4c3F)c12 [Example 55, 4-(4-((3S,4S)-4-amino-3-methyl-2-oxa-8-azaspiro[4.5]decan-8-yl)-8-fluoro-2-(((2R, 7aS)-2-fluorotetrahydro-1H-pyrrolizin-7a(5H)-yl)methoxy)pyrido[4,3-d]pyrimidin-7-yl)-5-ethynyl-6-fluoronaphthalen-2-ol] | – | > 2500 |
| C#Cc1c(F)ccc2cc(O)cc(-c3ncc4c(N5CC6CCC(C5)C6N)nc(OC[C@@]56CCCN5C[C@H](F)C6)nc4c3F)c12 (stereo partly drawn) [Example 63, 4-(4-((1R,5S,8R)-8-amino-3-azabicyclo [3.2.1]octan-3-yl)-8-fluoro-2-(((2R,7aS)-2-fluorotetrahydro-1H-pyrrolizin-7a(5H)-yl)methoxy)pyrido[4,3-d]pyrimidin-7-yl)-5-ethynyl-6-fluoronaphthalen-2-ol] | – | 1580 |
| Oc1cc2c(c(C3=C(F)c4nc(OC[C@@]56CCCN5C[C@H](F)C6)nc(N5C[C@H]6CC[C@@H](C5)N6)c4C4=NCCN43)c1)CCCC2 [Example 406, 4-(10-((1R,5S)-3,8-diazabicyclo[3.2.1]octan-3-yl)-6-fluoro-8-(((2R,7aS)-2-fluorotetrahydro-1H-pyrrolizin-7a(5H)-yl)methoxy)-2,3-dihydroimidazo[1′,2′:1,2]pyrido[4,3-d]pyrimidin-5-yl)-5,6,7,8-tetrahydronaphthalen-2-ol] | – | 120 |
| O=S1(=O)[C@@H]2CC[C@H]1CN(c1nc(OC[C@@]34CCCN3C[C@H](F)C4)nc3c(F)c(-c4cc(O)cc5ccc(F)c(F)c45)ccc13)C2 [Example 166, (1R,5S)-3-(7-(7,8-difluoro-3-hydroxynaphthalen-1-yl)-8-fluoro-2-(((2R,7aS)-2-fluorotetrahydro-1H-pyrrolizin-7a(5H)-yl)methoxy)quinazolin-4-yl)-8-thia-3-azabicyclo[3.2.1]octane 8,8-dioxide] | – | > 2500 |
| C#Cc1cccc2cc(O)cc(-c3ncc4c(N5C[C@H]6CC[C@@H](C5)S6)nc(OC[C@@]56CCCN5C[C@H](F)C6)nc4c3F)c12 [Example 20, 4-(4-((1R,5S)-8-thia-3-azabicyclo [3.2.1]octan-3-yl)-8-fluoro-2-(((2R, 7aS)-2-fluorotetrahydro-1H-pyrrolizin-7a(5H)-yl)methoxy)pyrido [4,3-d]pyrimidin-7-yl)-5-ethynylnaphthalen-2-ol] | – | 271 |
| O=C1CCc2cc(O)cc(-c3ncc4c(N5C[C@H]6CC[C@@H](C5)N6)nc(OC[C@@]56CCCN5C[C@H](F)C6)nc4c3F)c21 [Example 250, 7-(4-((1R,5S)-3,8-diazabicyclo[3.2.1]octan-3-yl)-8-fluoro-2-(((2R,7aS)-2-fluorotetrahydro-1H-pyrrolizin-7a(5H)-yl)methoxy)pyrido[4,3-d]pyrimidin-7-yl)-5-hydroxy-2,3-dihydro-1H-inden-1-one] | – | > 2500 |
| C#Cc1c(F)ccc2cc(O)cc(-c3ccc4c(N5CC(C#N)C5)nc(OC[C@@]56CCCN5C[C@H](F)C6)nc4c3F)c12 [Example 134, 1-(7-(8-ethynyl-7-fluoro-3-hydroxynaphthalen-1-yl)-8-fluoro-2-(((2R, 7aS)-2-fluorotetrahydro-1H-pyrrolizin-7a(5H)-yl)methoxy)quinazolin-4-yl)azetidine-3-carbonitrile] | – | 586 |
| CCn1cnc2cc(O)cc(-c3ncc4c(N5C[C@H]6CC[C@@H](C5)N6)nc(OC[C@@]56CCCN5C[C@H](F)C6)nc4c3F)c21 [Example 278, 7-(4-((1R,5S)-3,8-diazabicyclo[3.2.1]octan-3-yl)-8-fluoro-2-(((2R,7aS)-2-fluorotetrahydro-1H-pyrrolizin-7a(5H)-yl)methoxy)pyrido[4,3-d]pyrimidin-7-yl)-1-ethyl-1H-benzo[d]imidazol-5-ol] | – | > 10000 |
| CSc1nccc2cc(O)cc(-c3ncc4c(N5C[C@H]6CC[C@@H](C5)N6)nc(OC[C@@]56CCCN5C[C@H](F)C6)nc4c3F)c12 [Example 341, 8-(4-((1R,5S)-3,8-diazabicyclo[3.2.1]octan-3-yl)-8-fluoro-2-(((2R,7aS)-2-fluorotetrahydro-1H-pyrrolizin-7a(5H)-yl)methoxy)pyrido[4,3-d]pyrimidin-7-yl)-1-(methylthio)isoquinolin-6-ol] | – | 25 |
| CCC1CCCc2cc(O)cc(-c3ccc4c(N5C[C@H]6CC[C@@H](C5)N6)nc(OC[C@@]56CCCN5C[C@H](F)C6)nc4c3F)c21 (single isomer, unassigned) [Example 290] | 3410 | – |
| C#Cc1c(F)ccc2cc(O)cc(-c3ccc4c(N5CCC(C#N)CC5)nc(OC[C@@]56CCCN5C[C@H](F)C6)nc4c3F)c12 [Example 133, 1-(7-(8-ethynyl-7-fluoro-3-hydroxynaphthalen-1-yl)-8-fluoro-2-(((2R, 7aS)-2-fluorotetrahydro-1H-pyrrolizin-7a(5H)-yl)methoxy)quinazolin-4-yl)piperidine-4-carbonitrile] | – | > 2500 |
| Oc1cc(N2CCc3c(nc(OC[C@@]45CCCN4C[C@H](F)C5)nc3N3C[C@H]4CC[C@@H](C3)N4)C2)c2c(Cl)c(F)ccc2c1 [Example 208, 4-(4-((1R,5S)-3,8-diazabicyclo[3.2.1]octan-3-yl)-2-(((2R,7aS)-2-fluorotetrahydro-1H-pyrrolizin-7a(5H)-yl)methoxy)-5,8-dihydropyrido[3,4-d]pyrimidin-7(6H)-yl)-5-chloro-6-fluoronaphthalen-2-ol] | – | 20 |
